# Experimental data reported in ChEMBL document CHEMBL5143739, “Design and Discovery of MRTX0902, a Potent, Selective, Brain-Penetrant, and Orally Bioavailable Inhibitor of the SOS1:KRAS Protein-Protein Interaction” (J Med Chem, 2022).
# Experiments:
# [1] = In vivo inhibition of ERK phosphorylation in human MIA PaCa-2 cells harbouring KRAS G12C mutant xenografted in athymic nude Foxn1 nu mouse assessed as phosphorylated ERK level at 10 mg/kg, po qd in presence of 25 mg/kg MRTX849 measured after 4 hrs relative to total ERK; format: functional
# [2] = Free plasma concentration in CD-1 mouse at 100 mg/kg, po measured on 1 hr; format: ADME, organism-based; conditions: in vivo
# [3] = Inhibition of N-terminal his-tagged human recombinant SOS2/C-terminal Avi-biotinylated-tagged human recombinant KRAS expressed in Escherichia coli assessed as inhibition of GDP exchange rate by TR-FRET assay
# [4] = In vivo inhibition of ERK phosphorylation in human MIA PaCa-2 cells harbouring KRAS G12C mutant xenografted in athymic nude Foxn1 nu mouse assessed as phosphorylated ERK level at 10 mg/kg, po qd in presence of 50 mg/kg MRTX849 measured after 4 hrs relative to total ERK; format: functional
# [5] = Inhibition of human recombinant SOS2 catalytic domain/human recombinant GST-KRAS G12C mutant expressed in Escherichia coli assessed as inhibition of interaction
# [6] = In vivo inhibition of ERK phosphorylation in human MIA PaCa-2 cells harbouring KRAS G12C mutant xenografted in athymic nude Foxn1 nu mouse assessed as phosphorylated ERK level at 10 mg/kg, po qd measured after 4 hrs relative to total ERK; format: functional
smiles,measurement,setting,value
Cc1c(C#N)cccc1[C@@H](C)Nc1nnc(C)c2cnc(N3CCOCC3)cc12 [MRTX-0902],inhibition in vivo at 10 mg/kg,[1],66%
same,Cp(f),[2],134 nM
same,IC50,[3],> 10000 nM
same,inhibition in vivo at 10 mg/kg,[4],81%
CNCc1ccccc1-c1csc([C@@H](C)Nc2nc(C)nc3cc(OC)c(OC)cc23)c1 [BAY-293],IC50,[5],21 nM
C=C(F)C(=O)N1CCN(c2nc(OC[C@@H]3CCCN3C)nc3c2CCN(c2cccc4cccc(Cl)c24)C3)C[C@@H]1CC#N [ADAGRASIB],inhibition in vivo at 10 mg/kg,[6],21%
